Source: ChEMBL document CHEMBL1133579, “Derivation of pharmacophore and CoMFA models for leukotriene D(4) receptor antagonists of the quinolinyl(bridged)aryl series” (J Med Chem, 2000)

Biological target: T1, Cysteinyl leukotriene receptor 1 (Cavia porcellus, UniProt Q2NNR5)
T1 sequence (Q2NNR5 whole entry): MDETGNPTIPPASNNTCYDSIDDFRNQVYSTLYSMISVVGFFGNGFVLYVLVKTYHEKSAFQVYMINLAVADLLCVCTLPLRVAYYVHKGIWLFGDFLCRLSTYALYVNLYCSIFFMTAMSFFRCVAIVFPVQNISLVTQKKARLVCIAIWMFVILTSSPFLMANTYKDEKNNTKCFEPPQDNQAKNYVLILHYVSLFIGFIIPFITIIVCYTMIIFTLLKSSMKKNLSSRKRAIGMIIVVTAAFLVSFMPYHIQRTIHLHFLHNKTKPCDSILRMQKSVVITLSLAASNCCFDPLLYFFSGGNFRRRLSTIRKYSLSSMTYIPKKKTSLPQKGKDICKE
Assay: In vitro binding affinity towards Cysteinyl leukotriene D4 receptor by using [3H]LTD4 binding assay in guinea pig lung membranes; call rule not given here
Assay type: cell membranes, Membrane

SMILES | Ki [nM]
Cc1ccccc1S(=O)(=O)NC(=O)c1ccc(CCNC(=O)c2ccc3ccc(OCc4ccc5ccccc5n4)cc3c2)cc1 | 15
CC(C(=O)Nc1ccc(CCCC(=O)O)cc1)c1ccc2cc(OCc3ccc4ccccc4n3)ccc2c1 (stereo not given) | 38
O=C(O)Cc1ccc(CCNS(=O)(=O)c2ccc3ccc(OCc4ccc5ccccc5n4)cc3c2)cc1 | 2.4
CC(C(=O)NCCCCC(=O)O)c1ccc2cc(OCc3ccc4ccccc4n3)ccc2c1 (stereo not given) | 360
O=C(O)c1ccc(CCNS(=O)(=O)c2ccc3ccc(OCc4ccc5ccccc5n4)cc3c2)cc1 | 2.6
O=C(Nc1cccc2c(=O)cc(C(=O)O)oc12)c1ccc2ccc(OCc3ccc4ccccc4n3)cc2c1 | 30
O=C(O)c1ccc2c(ccn2Cc2ccc3ccc(OCc4ccc5ccccc5n4)cc3c2)c1 | 30
CN(C(=O)Cc1ccc(OCc2ccc3ccccc3n2)cc1)c1ccc(CCCC(=O)O)cc1 | 297
CC(C(=O)Nc1ccc(C(=O)O)cc1)c1ccc2cc(OCc3ccc4ccccc4n3)ccc2c1 (stereo not given) | 118
CC(C(=O)NCc1cccc(-c2nnn[nH]2)c1)c1ccc2cc(OCc3ccc4ccccc4n3)ccc2c1 (stereo not given) | 29
CC(C(=O)NCc1ccc(C(=O)O)cc1)c1ccc2cc(OCc3ccc4ccccc4n3)ccc2c1 (stereo not given) | 70
O=C(O)c1ccc(CCCOc2ccc3ccc(OCc4ccc5ccccc5n4)cc3c2)cc1 | 5.6
O=C(Nc1ccc(CCCc2nnn[nH]2)cc1)c1ccc(OCc2ccc3ccccc3n2)cc1 | 595
CC(C(=O)NCc1ccc(CC(=O)O)cc1)c1ccc2cc(OCc3ccc4ccccc4n3)ccc2c1 (stereo not given) | 134
O=C(O)c1ccc(CCNC(=O)c2ccc3ccc(OCc4ccc5ccccc5n4)cc3c2)cc1 | 1.05
O=C(O)c1ccc(CCNC(=O)c2ccc3ccc(OCc4ccc(-c5ccccc5)cn4)cc3c2)cc1 | 79
O=C(O)c1ccc(Cc2noc(-c3ccc4ccc(OCc5ccc6ccccc6n5)cc4c3)n2)cc1 | 15

The remaining lines, values ahead:

Ki [nM] | SMILES
168 | O=C(Nc1cccc2c(=O)cc(C(=O)O)oc12)c1ccc(OCc2ccc3ccccc3n2)cc1
7.3 | O=C(O)CCCc1ccc(NC(=O)Cc2ccc(OCc3ccc4ccccc4n3)cc2)cc1
237 | O=C(O)c1ccc(CCNC(=O)C2CCc3ccc(OCc4ccc5ccccc5n4)cc3O2)cc1 (stereo not given)
1050 | Cn1cc(CC(=O)NCc2ccc(-c3nn[nH]n3)cc2)c2cc(OCc3ccc4ccccc4n3)ccc21
4.8 | O=C(O)CCCc1ccc(NC(=O)Cc2ccc(OCc3ccc4ccc(Cl)cc4n3)cc2)cc1
88 | O=C(Cc1ccc(OCc2ccc3ccccc3n2)cc1)Nc1ccc(CCCc2nnn[nH]2)cc1
108 | O=C(Cc1ccc(OCc2ccc3ccccc3n2)cc1)Nc1ccc(Cc2nnn[nH]2)cc1
40 | O=C(O)CCCc1ccc(NC(=O)Cc2cccc(OCc3ccc4ccccc4n3)c2)cc1
4 | O=C(O)c1ccc(OCC(O)COc2ccc3ccc(OCc4ccc5ccccc5n4)cc3c2)cc1 (stereo not given)
2590 | O=C(Cc1ccc(OCCCCc2ccccc2)cc1)Nc1ccc(CCCc2nnn[nH]2)cc1

Biological target: T1, Cysteinyl leukotriene receptor 1
Assay: In vitro binding affinity towards Cysteinyl leukotriene D4 receptor by using [3H]LTD4 binding assay in guinea pig lung membranes; IA means inactive
Assay type: cell membranes

SMILES | Ki
O=C(O)c1ccc(CCNC(=O)c2ccc3ccc(OCc4ccc5ccccc5c4)cc3c2)cc1 | Not Active
Cc1cn(Cc2ccc3ccccc3n2)c2cc(C(=O)NCCc3ccc(C(=O)O)cc3)ccc12 | Not Active
O=C(O)c1ccc(CCNC(=O)c2cc(=O)c3ccc(OCc4ccc5ccccc5n4)cc3o2)cc1 | Not Active
